Data from article PMC12527922, “Cocaine chemogenetics blunts drug-seeking by synthetic physiology” (Nature, 2025).
Values joined by “and” are separate entries in the source; they are usually repeats but may differ in a detail not shown here. Equal entries are not always repeated.

Legend:
[1] = target: coca-5HT3 (α7(L141G,G175K,Y210F,Y217F)–5HT3) (Homo sapiens, UniProt P36544, G175K/L141G/Y210F/Y217F); experiment: Membrane potential assay, coca-5HT3 in HEK293; conditions: coca-5HT3; for Max normalized AVG: AVG of DRs
coca-5HT3 (α7(L141G,G175K,Y210F,Y217F)–5HT3), sequence (P36544 23-224 L141G/G175K/Y210F/Y217F): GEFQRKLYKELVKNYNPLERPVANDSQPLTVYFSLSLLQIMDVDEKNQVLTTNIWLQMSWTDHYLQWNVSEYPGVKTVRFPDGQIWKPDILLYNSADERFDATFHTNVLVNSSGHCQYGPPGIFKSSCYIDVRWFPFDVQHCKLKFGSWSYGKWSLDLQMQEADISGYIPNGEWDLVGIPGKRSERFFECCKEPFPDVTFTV
coca-5HT3 (α7(L141G,G175K,Y210F,Y217F)–5HT3), sequence (P23979 242-489, further chain): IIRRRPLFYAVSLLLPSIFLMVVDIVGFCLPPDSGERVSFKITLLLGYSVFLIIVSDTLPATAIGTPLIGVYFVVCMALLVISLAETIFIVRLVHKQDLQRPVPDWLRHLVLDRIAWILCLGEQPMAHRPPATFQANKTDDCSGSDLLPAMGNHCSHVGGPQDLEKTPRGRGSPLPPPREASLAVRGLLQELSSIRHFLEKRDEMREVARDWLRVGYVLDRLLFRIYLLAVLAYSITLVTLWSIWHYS

[2] = test system: hippocampal neurons expressing GFP; experiment: Current-clamp of control cultured hippocampal neurons expressing GFP; format: cell-based, rat; conditions: GFP; 3 uM relative to PRE; unlabelled mean line
[3] = test system: coca-5HT3 in cultured hippocampal neurons; experiment: Current-clamp of cultured hippocampal neurons expressing coca-5HT3; format: cell-based, rat; conditions: coca-5HT3; coc (3 uM) relative to pre; unlabelled mean line
[4] = target: T1, unmodified α7–5HT3 (UniProt P23979+P36544, M226I/T225I); experiment: Membrane potential assay, unmodified α7–5HT3; format: cell-based, human α7 nAChR LBD, mouse 5HT3 IPD; conditions: a7-5Ht3; for Max normalized AVG: AVG of DR 1-3; for Max normalized, single replicate: relative to ACh max of the DR
T1 construct: expressed in transfected cells; host or cells: HEK293 (ATCC CRL-1573), pcDNA3.1
T1 sequence (P36544+P23979 fused P36544:T225I/P36544:M226I): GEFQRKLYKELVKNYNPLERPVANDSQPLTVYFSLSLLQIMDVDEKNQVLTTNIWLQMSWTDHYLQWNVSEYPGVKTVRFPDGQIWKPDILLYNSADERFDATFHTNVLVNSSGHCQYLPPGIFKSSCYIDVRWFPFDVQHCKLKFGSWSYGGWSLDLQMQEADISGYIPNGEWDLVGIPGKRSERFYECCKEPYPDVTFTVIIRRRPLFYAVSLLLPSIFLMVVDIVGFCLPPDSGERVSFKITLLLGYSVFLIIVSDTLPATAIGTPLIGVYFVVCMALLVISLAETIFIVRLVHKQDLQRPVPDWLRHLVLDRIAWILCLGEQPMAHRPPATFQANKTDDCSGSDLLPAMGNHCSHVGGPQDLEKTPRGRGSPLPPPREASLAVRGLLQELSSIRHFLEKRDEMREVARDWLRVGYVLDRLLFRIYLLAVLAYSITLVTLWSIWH

[5] = target: T2, unmodified α7–GlyR (Homo sapiens, UniProt P23415+P36544); experiment: Membrane potential assay, unmodified α7–GlyR; format: cell-based; conditions: a7-GlyR
T2 construct: expressed in transfected cells; host or cells: HEK293 (ATCC CRL-1573), pcDNA3.1
T2 sequence (P36544+P23415 fused): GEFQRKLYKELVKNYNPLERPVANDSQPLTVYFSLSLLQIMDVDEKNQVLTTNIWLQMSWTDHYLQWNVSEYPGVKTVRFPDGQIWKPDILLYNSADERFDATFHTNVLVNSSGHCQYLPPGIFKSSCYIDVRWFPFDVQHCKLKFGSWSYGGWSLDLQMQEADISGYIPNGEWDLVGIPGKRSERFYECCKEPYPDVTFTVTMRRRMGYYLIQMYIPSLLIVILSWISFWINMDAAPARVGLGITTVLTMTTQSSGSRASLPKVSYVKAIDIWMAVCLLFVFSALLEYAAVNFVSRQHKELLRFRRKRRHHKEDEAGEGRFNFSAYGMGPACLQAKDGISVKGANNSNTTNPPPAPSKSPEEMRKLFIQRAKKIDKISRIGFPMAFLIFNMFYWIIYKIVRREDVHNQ

[6] = target: T3, coca-GlyR (α7(L141G,G175K,Y217F)–GlyR) (Homo sapiens, UniProt P23415+P36544, G175K/L141G/Y217F); experiment: Membrane potential assay, coca-GlyR in HEK293; format: cell-based; conditions: coca-GlyR; for Max normalized AVG: AVG of DRs
T3 construct: expressed in transfected cells; host or cells: HEK293 (ATCC CRL-1573), pcDNA3.1
T3 sequence (P36544+P23415 fused P36544:L141G/P36544:G175K/P36544:Y217F): as the sequence (P36544+P23415 fused) above, with L119G, G153K, Y195F counted along it

COC(=O)[C@H]1[C@@H](OC(=O)c2ccccc2)C[C@@H]2CC[C@H]1N2C [coc]
DR response, single replicate ([1]; [coc] 0.0137174): 0.067 and 0.015 and 0.01 and 0.009 and 0.046 and 0.1 and 0.014 | Max normalized, single replicate ([1]; [coc] 0.0137174): 0.01571 and 0.04202 and 0.03502 and 0.04968 and 0.07513 and 0.01777 and 0.06549 | Max normalized AVG ([1]; [coc] 0.0137174): 0.04297 | DR response, single replicate ([1]; [coc] 0.0411523): 0.051 and 0.054 and 0.011 and 0.02 and 0.076 and 0.06 and 0.008 and 0.009 | Max normalized, single replicate ([1]; [coc] 0.0411523): 0.05654 and 0.04622 and 0.07782 and 0.08207 and 0.04508 and 0.01015 and 0.007098 and 0.04985 | Max normalized AVG ([1]; [coc] 0.0411523): 0.04686 | DR response, single replicate ([1]; [coc] 0.123457): 0.063 and 0.015 and 0.01 and 0.013 (2×) and 0.056 and 0.037 and 0.035 | Max normalized, single replicate ([1]; [coc] 0.123457): 0.01571 and 0.04202 and 0.05058 and 0.06048 and 0.0278 and 0.04442 and 0.01025 and 0.06158 | Max normalized AVG ([1]; [coc] 0.123457): 0.0391 | DR response, single replicate ([1]; [coc] 0.37037): 0.098 and 0.161 and 0.012 and 0.019 and 0.144 and 0.109 and 0.122 and 0.014 | Max normalized, single replicate ([1]; [coc] 0.37037): 0.1686 and 0.05042 and 0.07393 and 0.1555 and 0.08189 and 0.1548 and 0.01104 and 0.0958 | Max normalized AVG ([1]; [coc] 0.37037): 0.099 | DR response, single replicate ([1]; [coc] 1.11111): 0.363 and 0.54 and 0.108 and 0.033 and 0.699 and 0.66 and 0.506 and 0.355 | Max normalized, single replicate ([1]; [coc] 1.11111): 0.5654 and 0.4538 and 0.1284 and 0.7549 and 0.4959 and 0.6421 and 0.28 and 0.3548 | Max normalized AVG ([1]; [coc] 1.11111): 0.4594 | DR response, single replicate ([1]; [coc] 3.33333): 0.825 and 0.861 and 0.191 and 0.144 and 0.926 and 1.093 and 0.788 and 0.762 | Max normalized, single replicate ([1]; [coc] 3.33333): 0.9016 and 0.8025 and 0.5603 and 1 (2×) and 0.8212 and 0.6009 and 0.8065 | Max normalized AVG ([1]; [coc] 3.33333): 0.8116 | DR response, single replicate ([1]; [coc] 10): 1.023 and 0.955 and 0.229 and 0.257 and 0.908 and 1.331 and 0.736 and 1.159 | Max normalized, single replicate ([1]; [coc] 10): 1 (4×) and 0.9622 and 0.9806 and 0.934 and 0.914 | Max normalized AVG ([1]; [coc] 10): 0.9738 | DR response, single replicate ([1]; [coc] 30): 0.864 and 0.903 and 0.238 and 0.251 and 1.268 | Max normalized, single replicate ([1]; [coc] 30): 0.9456 and 1 (2×) and 0.9767 and 0.8446 | Max normalized AVG ([1]; [coc] 30): 0.9534 | max (DR response of the replicate) ([1]; largest response of each DR): 1.023 and 0.955 and 0.238 and 0.257 and 0.926 and 1.331 and 0.788 and 1.268 | Rheobase Normalized, mean of cells [2]: 1.094 | Rheobase Normalized, mean of cells [3]: 0.5604 | DR response, single replicate ([4]; concentration 0.0457247): 0.035 and 0.029 and 0.04 | Max normalized AVG ([4]; concentration 0.0457247): 0.03558 | Max normalized, single replicate ([4]; concentration 0.0457247): 0.02736 and 0.03711 and 0.04227 | DR response, single replicate ([4]; concentration 0.137174): 0.031 and 0.062 and 0.034 | Max normalized AVG ([4]; concentration 0.137174): 0.04249 | Max normalized, single replicate ([4]; concentration 0.137174): 0.05849 and 0.03154 and 0.03744 | DR response, single replicate ([4]; concentration 0.411523): 0.023 and 0.07 and 0.034 | Max normalized AVG ([4]; concentration 0.411523): 0.04179 | Max normalized, single replicate ([4]; concentration 0.411523): 0.06604 and 0.03154 and 0.02778 | DR response, single replicate ([4]; concentration 1.23457): 0.031 and 0.038 and 0.043 | Max normalized AVG ([4]; concentration 1.23457): 0.03773 | Max normalized, single replicate ([4]; concentration 1.23457): 0.03585 and 0.03989 and 0.03744 | DR response, single replicate ([4]; concentration 3.7037): 0.019 and 0.031 and 0.039 | Max normalized AVG ([4]; concentration 3.7037): 0.02946 | Max normalized, single replicate ([4]; concentration 3.7037): 0.02925 and 0.03618 and 0.02295 | DR response, single replicate ([4]; concentration 11.1111): 0.036 and 0.037 and 0.017 | Max normalized AVG ([4]; concentration 11.1111): 0.03138 | Max normalized, single replicate ([4]; concentration 11.1111): 0.03491 and 0.01577 and 0.04348 | DR response, single replicate ([4]; concentration 33.3333): 0.037 and 0.071 and 0.05 | Max normalized AVG ([4]; concentration 33.3333): 0.05268 | Max normalized, single replicate ([4]; concentration 33.3333): 0.06698 and 0.04638 and 0.04469 | DR response, single replicate ([4]; concentration 100): 0.055 and 0.086 and 0.089 | Max normalized AVG ([4]; concentration 100): 0.07671 | Max normalized, single replicate ([4]; concentration 100): 0.08113 and 0.08256 and 0.06643 | DR response, single replicate ([5]; concentration 0.0457247): 0.05 and 0.083 and 0.071 | DR response, single replicate ([5]; concentration 0.137174): 0.031 and 0.061 and 0.045 | DR response, single replicate ([5]; concentration 0.411523): 0.036 and 0.075 and 0.045 | DR response, single replicate ([5]; concentration 1.23457): 0.032 and 0.049 and 0.043 | DR response, single replicate ([5]; concentration 3.7037): 0.027 and 0.033 and 0.028 | DR response, single replicate ([5]; concentration 11.1111): 0.032 and 0.038 and 0.034 | DR response, single replicate ([5]; concentration 33.3333): 0.046 and 0.052 and 0.049 | DR response, single replicate ([5]; concentration 100): 0.053 and 0.079 (2×) | DR response, single replicate ([6]; [coc] 0.0137174): 0.056 and 0.038 and 0.023 and 0.039 and 0.008 and 0.041 | Max normalized, single replicate ([6]; [coc] 0.0137174): 0.03823 and 0.06336 and 0.05409 and 0.0128 and 0.05758 and 0.03944 | Max normalized AVG ([6]; [coc] 0.0137174): 0.03793 | DR response, single replicate ([6]; [coc] 0.0411523): 0.06 and 0.037 and 0.017 and 0.078 and 0.025 and 0.015 and 0.049 | Max normalized, single replicate ([6]; [coc] 0.0411523): 0.03722 and 0.04683 and 0.05159 and 0.03467 and 0.024 and 0.06882 and 0.04225 | Max normalized AVG ([6]; [coc] 0.0411523): 0.04363 | DR response, single replicate ([6]; [coc] 0.123457): 0.034 (2×) and 0.037 and 0.031 and 0.077 and 0.02 and 0.024 | Max normalized, single replicate ([6]; [coc] 0.123457): 0.03722 and 0.0854 and 0.05093 and 0.02774 and 0.0384 and 0.04775 and 0.02394 | Max normalized AVG ([6]; [coc] 0.123457): 0.04448 | DR response, single replicate ([6]; [coc] 0.37037): 0.097 and 0.151 and 0.076 and 0.133 and 0.062 and 0.045 and 0.065 | Max normalized, single replicate ([6]; [coc] 0.37037): 0.1519 and 0.2094 and 0.08796 and 0.08599 and 0.072 and 0.09129 and 0.06831 | Max normalized AVG ([6]; [coc] 0.37037): 0.1095 | DR response, single replicate ([6]; [coc] 1.11111): 0.511 and 0.61 and 0.222 and 1.095 and 0.27 and 0.244 and 0.282 | Max normalized, single replicate ([6]; [coc] 1.11111): 0.6137 and 0.6116 and 0.7242 and 0.3745 and 0.3904 and 0.3961 and 0.3599 | Max normalized AVG ([6]; [coc] 1.11111): 0.4958 | DR response, single replicate ([6]; [coc] 3.33333): 1.226 and 0.859 and 0.343 and 1.133 and 0.644 and 0.538 and 0.653 | Max normalized, single replicate ([6]; [coc] 3.33333): 0.8642 and 0.9449 and 0.7493 and 0.8932 and 0.8608 and 0.9171 and 0.8634 | Max normalized AVG ([6]; [coc] 3.33333): 0.8704 | DR response, single replicate ([6]; [coc] 10): 1.42 and 0.941 and 1.448 and 0.721 and 0.62 and 0.712 | Max normalized, single replicate ([6]; [coc] 10): 0.9467 and 1 (4×) and 0.9577 and 0.992 | Max normalized AVG ([6]; [coc] 10): 0.9852 | DR response, single replicate ([6]; [coc] 30): 1.327 and 0.994 and 1.512 and 0.592 and 0.625 | Max normalized, single replicate ([6]; [coc] 30): 1 (3×) and 0.8211 and 0.9345 | Max normalized AVG ([6]; [coc] 30): 0.9511 | max (DR response of the replicate) ([6]; largest response of each DR): 1.42 and 0.994 and 0.363 and 1.512 and 0.721 and 0.625 and 0.712
